Consider three compounds from article PMC8963105, “A Novel Modulator of the Renin–Angiotensin System, Benzoylaconitine, Attenuates Hypertension by Targeting ACE/ACE2 in Enhancing Vasodilation and Alleviating Vascular Inflammation” (Frontiers in Pharmacology, 2022).

Assay [1] concerns spontaneously hypertension rats (SHRs). In words: acute experiment: real-time blood pressure after i.v. injection in SHRs. It counts as in vivo, rat. The conditions noted are these: for anti-hypertensive effect (in words): acute experiment, i.v. injection 0.6–6 mg kg^−1. Here is the method: (§1) The SHRs were surgically implanted with a catheter via the left femoral artery, vein, and stomach after anesthetizing with 2% pentobarbital sodium (40 mg kg^−1 i.p.,). A pressure sensor was inserted into the terminal of the arterial catheter and connected to a PowerLab system (ADInstruments, New South Wales, Australia) for real-time blood pressure monitoring.
(§2) All three MDAs (BAC, BMC, and BHC) were purchased from Nature-Standard Co., Ltd. (Shanghai, China) and their purities were all over 98%. The anti-hypertensive effects of MDAs were studied in both acute and chronic experiments. The 16-week-old SHRs were used in animal experiments, and each group had six rats. In the acute experiment, drug administration was via i.v. injection. For i.v. injection, the animals were randomly assigned into four groups: vehicle (0.1% DMSO–0.9% salt solution, n = 6), low-dose group (0.6 mg kg^−1 body weight, n = 6), medium-dose group (2 mg kg^−1 body weight, n = 6), and high-dose group (6 mg kg^−1 body weight, n = 6). The drug was administered using a venous catheter. In chronic experiments, the animals were randomly assigned into five groups: vehicle (5% Tween 80–0.9% salt solution, n = 6), captopril group (5 mg kg^−1 body weight, n = 6), low-dose group (3 mg kg^−1 body weight, n = 6), medium-dose group (10 mg kg^−1 body weight, n = 6), and high-dose group (30 mg kg^−1 body weight, n = 6). Oral administration with drug or 5% Tween 80–0.9% salt solution was carried out once a day, and continued for 14 days. The drugs were dissolved in 0.1% DMSO–0.9% salt solution for intravenous injection and in 5% Tween 80–0.9% salt solution for oral administration. Blood pressure was recorded in real time.
(§3) Real-time blood pressure level was monitored after drug treatment in the acute and chronic experiments. All animals were surgically implanted with a catheter in the left femoral artery. After connection to the monitor, all animals were placed at room temperature of 25°C for 0.5–1 h and the average blood pressure value was calculated based on a real-time blood pressure curve (10 s of every 30 s).

Assay [2] addresses T1, recombinant human ACE (rhACE) (Homo sapiens, UniProt P12821).
T1 construct: purchased Proteintech
In words: SPR assay with rhACE. It counts as binding. The conditions noted are these: rhACE on chip, 5% DMSO–1.05× PBS. As to the method: (§4) To screen the potential targets of the MDAs in hypertension, a CVDPlatform (www.cbligand.org/CVD) was used as previously reported ([Zhang et al., 2016a]). The results of database screening were verified by virtual docking with Discovery Studio 3.5 (BIOVIA, San Diego, CA, United States) and then validated in the SPR assay. In the SPR assay, a solution of protein standards was prepared, and the concentration of recombinant human ACE (rhACE) protein and rhACE2 (Proteintech, Rosemont, IL, United States) solution was set to 500 μg ml^−1. […] Finally, the level of binding between the proteins and each molecule was determined based on the K d value.

In a further assay the target is T2, rhACE2 (Homo sapiens, UniProt Q9BYF1).
T2 construct: purchased Proteintech
The assay can be described thus: SPR assay with rhACE2. It counts as binding. The conditions noted are these: rhACE2 on chip, 5% DMSO–1.05× PBS. Here is the method:
as §4

Another assay deals with rhACE (Homo sapiens, UniProt P12821). In words: ACE activity assay kit (enzyme kinetics, cell-free). It counts as biochemical. As to the method:
(§5) ACE and ACE2 activities were measured using the ACE activity assay kit and SensoLyte390 ACE2 activity assay kit (Anaspec, Fremont, CA, United States), respectively, according to the manufacturer’s instructions with some modifications. Briefly, rhACE solution dissolved in deionized water was used for analysis. ACE activity was measured in a reaction system with 50 μl of the sample and 50 μl of the ACE substrate solution with or without BAC (10^–4 to 10^–2 μM). ACE2 activity was assayed in the same manner as ACE activity. All assays were performed every 10 s for 30 min at 37°C using a Varioskan LUX fluorescence microplate reader (Thermo Fisher Scientific, Waltham, MA, United States). The autofluorescence value in each assay was subtracted from the measured values to generate the final results. The relative fluorescence unit of each sample was normalized to the corresponding total protein concentration, which was measured using a Pierce BCA protein assay kit (Thermo Fisher Scientific).

For a further assay, the target named is hrACE2 (Homo sapiens, UniProt Q9BYF1). In words: SensoLyte390 ACE2 activity assay (enzyme kinetics, cell-free). It counts as biochemical. The conditions noted are these: EC50 of BMC and BHC could not be determined. Here is the method: as §5
In assay [3] the test system is spontaneously hypertension rats (SHRs). In words: chronic experiment: blood pressure, heart rate and aorta histology after 14-day oral administration in SHRs. The class given is in vivo, rat. The conditions noted are these: once a day, 14 days. Here is the method: as §1, §2, §3
After euthanizing the rats with sodium pentobarbital (100 mg kg^−1, i.p.) administration in combination with isoflurane inhalation, the aortas were harvested directly according to a previously described method. The aortas were fixed in 4% paraformaldehyde for 24 h and embedded in paraffin. The cross-sections (5 μm) were stained with hematoxylin and eosin or subjected to immunostaining. Immunofluorescence staining for ACE and ACE2 was performed according to the manufacturer’s instructions (Servicebio, Wuhan, China).

hrACE2, sequence (Q9BYF1 18-805): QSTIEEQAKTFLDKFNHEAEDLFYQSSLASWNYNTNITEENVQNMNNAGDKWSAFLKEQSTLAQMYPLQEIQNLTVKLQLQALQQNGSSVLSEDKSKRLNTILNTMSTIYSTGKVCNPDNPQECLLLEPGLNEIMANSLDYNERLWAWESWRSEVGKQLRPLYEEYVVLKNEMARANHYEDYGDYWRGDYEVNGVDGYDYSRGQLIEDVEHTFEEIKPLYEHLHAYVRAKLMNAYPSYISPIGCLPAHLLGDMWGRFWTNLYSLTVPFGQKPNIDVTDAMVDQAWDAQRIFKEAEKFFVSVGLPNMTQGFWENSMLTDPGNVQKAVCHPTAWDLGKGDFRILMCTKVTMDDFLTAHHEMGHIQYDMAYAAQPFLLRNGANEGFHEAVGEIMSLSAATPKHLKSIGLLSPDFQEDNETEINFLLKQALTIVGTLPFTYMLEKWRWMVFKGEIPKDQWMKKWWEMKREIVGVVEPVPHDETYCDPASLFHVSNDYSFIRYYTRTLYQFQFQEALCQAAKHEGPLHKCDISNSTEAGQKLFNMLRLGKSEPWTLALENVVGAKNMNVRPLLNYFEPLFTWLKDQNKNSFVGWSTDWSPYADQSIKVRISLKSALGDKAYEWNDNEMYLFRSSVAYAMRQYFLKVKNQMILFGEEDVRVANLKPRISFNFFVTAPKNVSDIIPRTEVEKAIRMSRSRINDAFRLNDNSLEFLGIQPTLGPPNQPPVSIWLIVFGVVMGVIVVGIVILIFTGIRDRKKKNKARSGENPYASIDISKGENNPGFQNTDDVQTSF
T2 sequence (Q9BYF1 18-805): as above
rhACE, sequence (P12821 30-1306): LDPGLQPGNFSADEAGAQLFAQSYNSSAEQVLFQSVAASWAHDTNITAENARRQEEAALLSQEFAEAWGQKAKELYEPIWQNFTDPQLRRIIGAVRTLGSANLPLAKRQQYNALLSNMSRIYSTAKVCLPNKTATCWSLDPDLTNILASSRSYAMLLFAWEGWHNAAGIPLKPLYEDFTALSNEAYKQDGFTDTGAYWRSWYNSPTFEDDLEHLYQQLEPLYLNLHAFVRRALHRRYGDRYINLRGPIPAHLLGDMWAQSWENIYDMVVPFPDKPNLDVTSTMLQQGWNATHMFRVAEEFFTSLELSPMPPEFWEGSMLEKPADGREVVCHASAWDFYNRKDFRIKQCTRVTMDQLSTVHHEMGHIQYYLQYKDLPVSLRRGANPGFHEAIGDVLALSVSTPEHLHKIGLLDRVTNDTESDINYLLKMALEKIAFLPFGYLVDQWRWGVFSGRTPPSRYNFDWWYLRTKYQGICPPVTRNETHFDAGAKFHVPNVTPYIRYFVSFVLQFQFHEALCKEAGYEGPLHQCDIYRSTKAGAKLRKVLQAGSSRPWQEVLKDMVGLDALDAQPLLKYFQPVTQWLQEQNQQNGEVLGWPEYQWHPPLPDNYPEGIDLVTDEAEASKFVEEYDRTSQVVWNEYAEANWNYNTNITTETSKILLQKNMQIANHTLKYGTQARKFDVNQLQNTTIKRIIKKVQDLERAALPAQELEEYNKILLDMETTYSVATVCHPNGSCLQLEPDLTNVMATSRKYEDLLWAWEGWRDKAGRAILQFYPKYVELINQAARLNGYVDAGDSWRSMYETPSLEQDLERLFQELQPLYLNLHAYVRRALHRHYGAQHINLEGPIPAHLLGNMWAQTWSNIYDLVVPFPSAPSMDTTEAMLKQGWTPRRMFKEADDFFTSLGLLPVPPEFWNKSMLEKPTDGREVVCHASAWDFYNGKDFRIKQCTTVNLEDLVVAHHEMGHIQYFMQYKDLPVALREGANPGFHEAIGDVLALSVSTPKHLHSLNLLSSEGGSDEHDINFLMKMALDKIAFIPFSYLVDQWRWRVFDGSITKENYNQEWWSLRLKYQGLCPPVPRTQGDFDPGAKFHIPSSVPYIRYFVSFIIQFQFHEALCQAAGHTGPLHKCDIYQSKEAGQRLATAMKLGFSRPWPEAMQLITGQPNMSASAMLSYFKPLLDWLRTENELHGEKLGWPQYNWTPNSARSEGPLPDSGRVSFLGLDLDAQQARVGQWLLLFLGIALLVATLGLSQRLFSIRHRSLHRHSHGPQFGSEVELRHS
T1 sequence (P12821 30-1306): as above

In general, Kd refers to the constant that tells how readily two partners part at equilibrium. As a reminder, the IC50 is the concentration at which inhibition is half-maximal. A high value points to lower potency. For `COCC12CN(C)C3C4C(OC)C1C3(C(OC)CC2O)C1CC2(O)C(OC)C(O)C4(O)C1C2OC(=O)c1ccccc1` (stereo not drawn) [BMC, Benzoylmesaconine], the “anti-hypertensive effect (in words)” value in assay [1] is “observable anti-hypertensive effects”. The blood pressure reduction result in assay [1] (i.v. injection, 6 mg kg^−1) was “approximately 20 mmHg”. In addition, the Kd in assay [2] is 53.6 µM; at rhACE2 it was 20.5 µM. The IC50 against rhACE (37°C, 30 min) was determined as 0.96 µM. Also, the “effect on ACE2 activity (in words)” value at hrACE2 is reported as “weaker pharmacodynamics effects”.

On to `C[C@H](CS)C(=O)N1CCC[C@H]1C(=O)O` [captopril, reference compound], for which the heart rate result in assay [3] was “Heart rate changed”.

With `COCC12CCC(OC)C34C5CC6(O)C(OC)C(O)C(O)(C5C6OC(=O)c5ccccc5)C(C(OC)C13)C4N(C)C2` (stereo not drawn) [BHC, Benzoylhypaconitine], the “anti-hypertensive effect (in words)” value in assay [1] is given as “no anti-hypertensive effects”. For the same compound, the figures for the Kd (in assay [2]; at rhACE2) were 139 µM and 308 µM, respectively. Also, the “effect on ACE activity (in words)” value on rhACE (IC50 could not be determined) was “little effect”. For the same compound, the “effect on ACE2 activity (in words)” value at hrACE2 is “weaker pharmacodynamics effects”.
